Data as given in PubChem BioAssay (NCI).
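Test compounds were applied to cells in 96-well plates for 48 hours at 5 doses. Here, GI50 denotes the concentration required for 50% inhibition of growth. TGI: concentration producing complete growth inhibition.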

Legend:
Assay in all cases: NCI-60 cell line screen, 48 h
[1] = test system: OVCAR-3 ovarian
[2] = test system: OVCAR-5 ovarian
[3] = test system: HS 578T breast
[4] = test system: BT-549 breast
[5] = test system: SK-MEL-2 melanoma
[6] = test system: KM12 colon
[7] = test system: SW-620 colon
[8] = test system: TK-10 renal
[9] = test system: PC-3 prostate
[10] = test system: HL-60(TB) leukemia

SMILES | TGI [1] [µM] | TGI [2] [µM] | TGI [3] [µM] | TGI [4] [µM] | TGI [5] [µM] | TGI [6] [µM] | TGI [7] [µM] | TGI [8] [µM] | TGI [9] [µM] | TGI [10] [µM] | GI50 [10] [µM]
Cc1ccc(S(=O)(=O)N2CCN(CCN(C)CCN3CCN(S(=O)(=O)c4ccc(C)cc4)CC3)CC2)cc1 | 31.1 | 80.8 | 42.2 | 30.6 | 33.6 | 31.6 | 31.7 | 30.2 | 56 | 33.6 | –
COC1/C=C/C(C)C(C(C)C(OC)C(C)CCC(=O)C(C)C(CCC(=O)O)OC)OC(=O)/C=C/C=C(\C)CC(OC)CC2=CC(=O)O[C@@H](C(C)C(OC)CC(OC)/C=C/C(C)C(OC)C1)[C@H]2O (stereo partly specified) | 1.72 | > 5 | > 5 | 2.85 | 1.89 | > 5 | > 5 | > 5 | 2.82 | 1 | –
CCOP(=O)(OCC)C(Nc1ccc(F)cc1)c1cccc([N+](=O)[O-])c1 (stereo unspecified) | > 100 | > 100 | > 100 | > 100 | > 100 | > 100 | > 100 | > 100 | > 100 | > 100 | –
Cc1ccc(O)c(C2=NNC(c3cccc(Br)c3)C2)c1 (stereo unspecified) | > 100 | > 100 | > 100 | > 100 | > 100 | > 100 | > 100 | > 100 | > 100 | > 100 | –
O=C(/C=C/c1ccc([N+](=O)[O-])cc1)c1nc2ccccc2[nH]1 | > 78.1 | 24.1 | > 100 | > 100 | > 100 | > 100 | > 100 | > 37.8 | > 100 | > 29.9 | –
Cc1ccc2c(c1)OC1Nc3ccccc3C1=C2O (stereo unspecified) | 21.1 | > 100 | > 100 | 66.1 | 47.6 | > 100 | > 100 | 78.3 | 39.6 | 43.1 | –
Cc1cc(S(=O)(=O)Nc2nnc3cc(C(F)(F)F)cc(C)n23)c(S)cc1Cl | > 100 | > 100 | > 100 | > 100 | > 100 | > 100 | > 100 | > 100 | > 100 | > 100 | –
Cc1[nH]c(-c2ccccc2)c(-c2ccc(Cl)cc2)c1C(=O)ONC(=O)c1ccccc1 | 14.9 | 20 | 5.72 | 9.94 | 11.2 | > 48.3 | 31.7 | 9.76 | 17.2 | 3.29 | –
O=C(Nc1cccc(-c2cn3ccccc3n2)c1)c1ccncc1 | > 100 | > 100 | > 100 | 72 | 46.5 | > 100 | > 100 | > 100 | > 100 | 45.8 | –
CCCCN(c1ccccc1)c1ncnc2c1cnn2C | > 100 | > 100 | 76.4 | 62.1 | 78.1 | > 100 | > 100 | > 100 | > 100 | 47.6 | –
CC1(C)[C@@H]2C[C@H]1c1cnc(-c3ccccn3)cc1C2[C@@H]1c2cc(-c3ccccn3)ncc2[C@@H]2C[C@H]1C2(C)C (stereo partly specified) | > 100 | > 100 | > 100 | > 100 | > 100 | > 100 | > 100 | 75.1 | > 100 | > 100 | –
O=C(c1ccco1)N(C(=S)OCc1ccccn1)c1ccccc1 | > 100 | > 100 | > 100 | > 100 | > 100 | > 100 | > 100 | > 100 | > 100 | > 100 | –
O=C1C=CC(=O)c2ncccc21 | 4.13 | 32.2 | 56.4 | 15.5 | 28.2 | 25.5 | 4.62 | 17.4 | 22.3 | 2.02 | –
O=C1[C@@H]2Cc3c([nH]c4ccccc34)C(C3CCCCC3)N2C(=O)[C@@H]2CCCN12 (stereo partly specified) | 51.7 | > 100 | 68.7 | 88 | 39.7 | 58.4 | > 100 | > 100 | 60.6 | 59.2 | –
O=C1c2ccccc2CC12Cc1ccc3c(c1C2)CCC3 (stereo unspecified) | 41.7 | 42.2 | 83.4 | > 100 | 30.2 | 73.9 | > 100 | 26.7 | > 100 | 42.1 | –
CC(C)(C)N1Cc2ccccc2/C(=C/Sc2ccccc2)C1=O | 25.1 | 39.8 | 41.2 | 20.1 | 31.4 | 31.4 | 27.4 | 34.8 | 26.6 | 39.8 | –
OC1OC(c2ccco2)C(F)(F)C(F)(F)C1(F)F (stereo unspecified) | > 100 | > 100 | 76.2 | > 100 | > 100 | > 100 | > 100 | > 100 | > 100 | > 100 | –
N#CCc1nc(C#N)c(N)o1 | > 100 | > 100 | > 100 | > 100 | > 100 | > 100 | > 100 | > 100 | > 100 | > 100 | > 100
NC(N)=N/N=C/c1nc2sccn2c1[N+](=O)[O-] | 50.5 | > 100 | 98.4 | > 100 | 41.8 | 47.6 | > 100 | > 100 | > 100 | 34.1 | –
CCCCCCCCCCCCCCCCNc1nc(=O)n(C2CC(O)C(CO)O2)cc1F (stereo unspecified) | 39.3 | 47.6 | 38.7 | 32.4 | 40.3 | 34 | 32.1 | 27.5 | 21.2 | 27.7 | –
CC[N+](C)(CC)CCN1C(=O)c2ccccc2S1(=O)=O | > 100 | > 100 | > 100 | > 100 | > 100 | > 100 | > 100 | > 100 | > 100 | > 100 | –
CC(C)(C)OC(=O)N1C(OP(=O)(Oc2ccccc2)Oc2ccccc2)=COc2cccnc21 | > 100 | > 100 | > 100 | > 100 | 55.7 | > 100 | > 100 | > 100 | > 100 | 36.6 | –
CCN(CC)CCCNc1ccc2nnn3c4ccc(O)cc4c(=O)c1c23 | 25.2 | 26.8 | 31 | 27 | 28.8 | 20 | 18.4 | 17.6 | 19.3 | 33.2 | –
O=C(NCCNCCO)N/N=C/c1ccc(Cl)cc1 | > 100 | > 100 | > 100 | > 100 | > 100 | > 100 | > 100 | > 100 | > 100 | > 100 | –
CCOC(=O)C(Cc1ccccc1)(Cc1ccc(O)cn1)NC(=O)c1ccccc1 (stereo unspecified) | 47.8 | > 100 | 63.6 | 81 | 43.9 | 54.8 | > 100 | > 100 | 75.1 | 43.8 | –
N#Cc1c2c(c(N3CCOCC3)n3c1nc1ccccc13)CCCC2 | 36.5 | 41.8 | > 100 | > 100 | 31.8 | > 100 | 29 | 49.3 | 50.3 | 35.5 | –
